Data: ChEMBL document CHEMBL5512597, “Triazole hybrid compounds: A new frontier in malaria treatment” (Eur J Med Chem, 2023)
Values after ≈ are worked out from the molar mass of the structure shown. Each block holds one compound with its values, some of them ahead of it.

Assays:
Plasmodium falciparum [1] = assay: Antimalarial activity against Plasmodium falciparum 3D7 infected in A+ human erythrocytes assessed as reduction in parasite growth incubated for 72 hrs by SYBR Green I staining based analysis; type: functional, organism-based; conditions: 3D7, Erythrocyte
Plasmodium falciparum [2] = assay: Antimalarial activity against CQ-resistant Plasmodium falciparum K1; type: functional, organism-based
Plasmodium falciparum [3] = assay: Antimalarial activity against Plasmodium falciparum Dd2 infected in A+ human erythrocytes assessed as reduction in parasite growth incubated for 72 hrs by SYBR Green I staining based analysis; type: functional, organism-based; conditions: Dd2, Erythrocyte
Plasmodium falciparum [4] = assay: Antimalarial activity against Plasmodium falciparum K1 infected in A+ human erythrocytes assessed as reduction in parasite growth incubated for 72 hrs by SYBR Green I staining based analysis; type: functional, organism-based; conditions: K1, Erythrocyte
Plasmodium falciparum [5] = assay: Antimalarial activity against Plasmodium falciparum assessed as parasite growth inhibition incubated for 36 to 40 hrs by JSB staining based analysis; type: functional, organism-based
Plasmodium falciparum [6] = assay: Antimalarial activity against Plasmodium falciparum; type: functional, organism-based
Plasmodium falciparum [7] = assay: Antimalarial activity against Plasmodium falciparum 3D7 at asexual erythrocytic stage assessed as parasite growth inhibition measured after 24 hrs by [3H]-hypoxanthine incorporation assay; type: functional, organism-based
[8] = Cytotoxicity against human erythrocytes; type: toxicity, cell-based, Erythrocyte
Plasmodium falciparum [9] = assay: Antimalarial activity against CQ-resistant Plasmodium falciparum Dd2; type: functional, organism-based
Plasmodium falciparum [10] = assay: Antiplasmodial activity against CQ-sensitive Plasmodium falciparum NF54; type: functional, organism-based

SMILES: C[C@H]1[C@H](OC(=O)CCC(=O)OCc2cn(-c3ccnc4cc(Cl)ccc34)nn2)O[C@@H]2O[C@@]3(C)CC[C@H]4[C@H](C)CC[C@@H]1[C@@]24OO3
EC50 (Plasmodium falciparum [1]): 5.3 nM

SMILES: O=C1c2ccccc2C(=O)N1[C@H]1C(=O)N(c2ccc(OCc3cn(Cc4ccccc4)nn3)cc2)[C@@H]1c1ccc(OCc2cn(Cc3ccccc3)nn2)cc1
IC50 (Plasmodium falciparum [2]): 1.81 µM

SMILES: Cc1nc(-c2ccccc2)c(-c2ccccc2)c2cc(-c3cn(CCOC(=O)CCC(=O)O[C@@H]4O[C@@H]5O[C@@]6(C)CC[C@H]7[C@H](C)CC[C@@H]([C@H]4C)[C@@]57OO6)nn3)ccc12
EC50 (Plasmodium falciparum [3]): 4.8 nM
EC50 (Plasmodium falciparum [1]): 5.3 nM
EC50 (Plasmodium falciparum [4]): 3.3 nM

SMILES: O=c1ccc2ccc(OCc3cn(-c4ccc(OCc5ccc(Br)cc5)cc4)nn3)cc2o1
IC50 (Plasmodium falciparum [5]): 0.54 µg/mL (≈ 1.07 µM)

IC50 (Plasmodium falciparum [6]): 990 nM
SMILES: CC1=C(C(=O)Nc2ccc(F)cc2)C(c2ccc(OCc3cn(Cc4ccccc4)nn3)cc2)n2c(nc3ccccc32)N1 (configuration not stated)

IC50 (Plasmodium falciparum [6]): 2110 nM
SMILES: CC1=C(C(=O)Nc2ccccc2Cl)C(c2ccc(OCc3cn(Cc4ccccc4)nn3)cc2)n2c(nc3ccccc32)N1 (configuration not stated)

IC50 (Plasmodium falciparum [6]): 3120 nM
SMILES: CC1=C(C(=O)Nc2cccc(Cl)c2)C(c2ccc(OCc3cn(Cc4ccccc4)nn3)cc2)n2c(nc3ccccc32)N1 (configuration not stated)

IC50 (Plasmodium falciparum [6]): 1690 nM
SMILES: CC1=C(C(=O)Nc2ccc(Cl)cc2)C(c2ccc(OCc3cn(Cc4ccccc4)nn3)cc2)n2c(nc3ccccc32)N1 (configuration not stated)

IC50 (Plasmodium falciparum [6]): 3120 nM
SMILES: CC1=C(C(=O)Nc2ccccc2)C(c2ccc(OCc3cn(Cc4ccccc4)nn3)cc2)n2ncnc2N1 (configuration not stated)

IC50 (Plasmodium falciparum [6]): 2860 nM
SMILES: CC1=C(C(=O)Nc2ccc(C(F)(F)F)cc2)C(c2ccc(OCc3cn(Cc4ccccc4)nn3)cc2)n2c(nc3ccccc32)N1 (configuration not stated)

SMILES: O=c1cc(OCc2cn(-c3ccc(S(=O)(=O)N4CCOCC4)cc3)nn2)c2ccccc2o1
IC50 (Plasmodium falciparum [7]): 34.2 µM

SMILES: C[C@H]1[C@@H](OCc2cn(-c3ccnc4cc(Cl)ccc34)nn2)O[C@@H]2O[C@@]3(C)CC[C@H]4[C@H](C)CC[C@@H]1[C@@]24OO3
EC50 (Plasmodium falciparum [1]): 9 nM

SMILES: Cc1cc(=O)oc2cc(OCc3cn(-c4ccc(S(=O)(=O)N5CCOCC5)cc4)nn3)c(Cl)cc12
IC50 (Plasmodium falciparum [7]): 50.4 µM

SMILES: Cc1ccccc1COc1ccc(-n2cc(COc3cc(=O)oc4ccccc34)nn2)cc1
IC50 (Plasmodium falciparum [5]): 0.53 µg/mL (≈ 1.21 µM)

SMILES: O=c1cc(OCc2cn(-c3ccc(OCc4cccc([N+](=O)[O-])c4)cc3)nn2)c2ccccc2o1
IC50 (Plasmodium falciparum [5]): 0.6 µg/mL (≈ 1.28 µM)

SMILES: Cc1cccc(COc2ccc(-n3cc(COc4cc(=O)oc5ccccc45)nn3)cc2)c1
IC50 (Plasmodium falciparum [5]): 1.05 µg/mL (≈ 2.39 µM)

IC50 (Plasmodium falciparum [6]): 820 nM
SMILES: CC1=C(C(=O)Nc2ccc(C(F)(F)F)cc2)C(c2ccc(OCc3cn(Cc4ccccc4)nn3)cc2)n2ncnc2N1 (configuration not stated)

SMILES: Cc1ccc(N2C(=O)[C@@H](Oc3ccccc3)[C@H]2c2ccc(OCc3cn(Cc4ccccc4)nn3)cc2)cc1
IC50 (Plasmodium falciparum [2]): 15.5 µM

SMILES: OCc1cn(Cc2ccc(Cl)cc2)nn1
CC50 [8]: 88.6 µg/mL (≈ 396 µM)
IC50 (Plasmodium falciparum [9]): 22.1 µg/mL (≈ 98.9 µM)

SMILES: C[C@H]1[C@H](OCc2cn(-c3ccnc4cc(Cl)ccc34)nn2)O[C@@H]2O[C@@]3(C)CC[C@H]4[C@H](C)CC[C@@H]1[C@@]24OO3
EC50 (Plasmodium falciparum [3]): 10.6 nM
EC50 (Plasmodium falciparum [1]): 27.5 nM
EC50 (Plasmodium falciparum [4]): 5.9 nM

IC50 (Plasmodium falciparum [6]): 1680 nM
SMILES: CC1=C(C(=O)Nc2ccc(Cl)cc2)C(c2ccc(OCc3cn(Cc4ccccc4)nn3)cc2)n2ncnc2N1 (configuration not stated)

IC50 (Plasmodium falciparum [10]): 28 µM
SMILES: Clc1ccc2c(-n3cc(-c4ccccn4)nn3)ccnc2c1

IC50 (Plasmodium falciparum [6]): 4360 nM
SMILES: CC1=C(C(=O)Nc2ccc(F)cc2)C(c2ccc(OCc3cn(Cc4ccccc4)nn3)cc2)n2ncnc2N1 (configuration not stated)

SMILES: NS(=O)(=O)c1ccc(-n2cc(COc3cc(=O)oc4ccccc34)nn2)cc1
IC50 (Plasmodium falciparum [7]): 100 µM

SMILES: O=c1cc(OCc2cn(-c3ccc(OCc4ccccc4[N+](=O)[O-])cc3)nn2)c2ccccc2o1
IC50 (Plasmodium falciparum [5]): 0.98 µg/mL (≈ 2.08 µM)

IC50 (Plasmodium falciparum [6]): 184 nM
SMILES: O=C(Cn1cc(CSc2ccc(Br)cc2)nn1)OCc1ccc([N+](=O)[O-])cc1

IC50 (Plasmodium falciparum [6]): 1530 nM
SMILES: CC1=C(C(=O)Nc2ccccc2C)C(c2ccc(OCc3cn(Cc4ccccc4)nn3)cc2)n2c(nc3ccccc32)N1 (configuration not stated)

SMILES: COc1ccc(N2C(=O)[C@@H](Oc3ccccc3)[C@H]2c2ccc(OCc3cn(Cc4ccccc4)nn3)cc2)cc1OC
IC50 (Plasmodium falciparum [2]): 5.14 µM

SMILES: O=C1[C@@H](Oc2ccccc2)[C@@H](c2ccc(OCc3cn(Cc4ccccc4)nn3)cc2)N1c1ccc(OCc2cn(Cc3ccccc3)nn2)cc1
IC50 (Plasmodium falciparum [2]): < 0.97 µM

IC50 (Plasmodium falciparum [6]): 178 nM
SMILES: COc1ccc(COC(=O)Cn2cc(CSc3ccc(Br)cc3)nn2)cc1

SMILES: C[C@H]1[C@H](OC(=O)CCC(=O)OCCCCc2cn(-c3ccnc4cc(Cl)ccc34)nn2)O[C@@H]2O[C@@]3(C)CC[C@H]4[C@H](C)CC[C@@H]1[C@@]24OO3
EC50 (Plasmodium falciparum [3]): 4.4 nM
EC50 (Plasmodium falciparum [1]): 6.2 nM
EC50 (Plasmodium falciparum [4]): 2.5 nM

SMILES: C[C@H]1[C@@H](OCCCCc2cn(-c3ccnc4cc(Cl)ccc34)nn2)O[C@@H]2O[C@@]3(C)CC[C@H]4[C@H](C)CC[C@@H]1[C@@]24OO3
EC50 (Plasmodium falciparum [3]): 6.1 nM
EC50 (Plasmodium falciparum [1]): 8.4 nM
EC50 (Plasmodium falciparum [4]): 3.7 nM

SMILES: C=CCn1cc(COc2ccc([C@@H]3[C@H](Oc4ccccc4)C(=O)N3c3ccc(C)cc3)cc2)nn1
IC50 (Plasmodium falciparum [2]): 8.43 µM
